The IC50 is the concentration that gives 50% inhibition.

The assay deals with T1, RORc ligand binding domain (Homo sapiens, UniProt P51449).
T1 construct: host or cells: E. coli
T1 sequence (P51449 269-508 limits assumed): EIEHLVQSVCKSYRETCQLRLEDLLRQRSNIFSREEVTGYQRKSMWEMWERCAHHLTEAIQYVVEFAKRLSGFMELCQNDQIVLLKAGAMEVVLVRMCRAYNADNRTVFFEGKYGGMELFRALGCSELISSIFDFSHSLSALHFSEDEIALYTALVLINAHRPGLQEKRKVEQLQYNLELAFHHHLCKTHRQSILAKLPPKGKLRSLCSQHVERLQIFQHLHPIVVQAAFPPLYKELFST
The experiment in a line: In vitro RORc ligand binding assay (25-[3H]hydroxycholesterol displacement, filter binding).
For `CC(C)(C)OC(=O)N1CCNC[C@H]1[C@@]12CC[C@@H](c3cc(-c4c(F)cccc4F)nnc31)C2(C)C` [Compound 115, tert-butyl 2-[5-(2,6-difluorophenyl)-11,11-dimethyl-3,4-diazatricyclo[6.2.1.02,7]undeca-2,4,6-trien-1-yl]piperazine-1-carboxylate], the half-inhibitory concentration (IC50) is 3.1 nM.
Consider `CC[C@@H](O[C@@]12CC[C@@H](c3cc(-c4c(F)cccc4F)nnc31)C2(C)C)C(=O)Nc1nnc(C)o1` [Compound 55, (R)-2-(((5S,8R)-3-(2,6-difluorophenyl)-9,9-dimethyl-5,6,7,8-tetrahydro-5,8-methanocinnolin-8-yl)oxy)-N-(5-methyl-1,3,4-oxadiazol-2-yl)butanamide], for which the half-inhibitory concentration (IC50) turned out to be 94.8 nM.
Compound `CCC[C@@H](O[C@@]12CC[C@@H](c3cc(-c4c(F)cccc4F)nnc31)C2(C)C)C(N)=O` [Compound 49, (R)-2-(((5S,8R)-3-(2,6-difluorophenyl)-9,9-dimethyl-5,6,7,8-tetrahydro-5,8-methanocinnolin-8-yl)oxy)pentanamide] displayed a half-inhibitory concentration (IC50) of 15.4 nM.
Next, `CCNC(=O)[C@@H](CC)O[C@@]12CC[C@@H](c3cc(-c4c(F)cccc4F)nnc31)C2(C)C` [Compound 22, (R)-2-(((5S,8R)-3-(2,6-difluorophenyl)-9,9-dimethyl-5,6,7,8-tetrahydro-5,8-methanocinnolin-8-yl)oxy)-N-ethylbutanamide]: 1010 nM.
Compound `CC1(C)[C@H]2CC[C@]1([C@H]1CCC(=O)NC1)c1nnc(-c3c(F)cccc3F)cc12` [Compound 92, (R)-5-((5R,8R)-3-(2,6-difluorophenyl)-9,9-dimethyl-5,6,7,8-tetrahydro-5,8-methanocinnolin-8-yl)piperidin-2-one] gave an IC50 of 215 nM.
The result for `CC1(C)[C@H]2CC[C@]1([C@@H]1CNCCO1)c1nnc(-c3c(F)cccc3F)cc12` [Compound 66, (R)-2-((5R,8R)-3-(2,6-difluorophenyl)-9,9-dimethyl-5,6,7,8-tetrahydro-5,8-methanocinnolin-8-yl)morpholine] reads 458 nM; that for `CNC(=O)c1nnc([C@@]23CC[C@@H](c4cc(-c5c(F)cccc5F)nnc42)C3(C)C)o1` [Compound 3, 5-((5R,8R)-3-(2,6-difluorophenyl)-9,9-dimethyl-5,6,7,8-tetrahydro-5,8-methanocinnolin-8-yl)-N-methyl-1,3,4-oxadiazole-2-carboxamide], 283 nM.
On to `CC[C@@H](O[C@@]12CC[C@@H](c3cc(-c4c(F)cccc4F)nnc31)C2(C)C)C(=O)N1CC(C#N)C1` [Compound 37, 1-((R)-2-(((5S,8R)-3-(2,6-difluorophenyl)-9,9-dimethyl-5,6,7,8-tetrahydro-5,8-methanocinnolin-8-yl)oxy)butanoyl)azetidine-3-carbonitrile], for which the IC50 was 68.9 nM.
On to `Cc1nc(N2CCO[C@H]([C@@]34CC[C@@H](c5cc(-c6c(F)cccc6F)nnc53)C4(C)C)C2)n(Cc2ccccc2)n1` [Compound 143, 4-(2-benzyl-5-methyl-1,2,4-triazol-3-yl)-2-[5-(2,6-difluorophenyl)-11,11-dimethyl-3,4-diazatricyclo[6.2.1.02,7]undeca-2,4,6-trien-1-yl]morpholine], for which the IC50 is 5.6 nM.
The result for `CC1(C)[C@H]2CC[C@]1(Oc1cccnn1)c1nnc(-c3c(F)cccc3F)cc12` [Compound 16, (5S,8R)-3-(2,6-difluorophenyl)-9,9-dimethyl-8-(pyridazin-3-yloxy)-5,6,7,8-tetrahydro-5,8-methanocinnoline] reads 254 nM; that for `CC1(C)[C@H]2CC[C@]1([C@@H]1CN(c3ccccn3)CCO1)c1nnc(-c3c(F)cccc3F)cc12` [Compound 79, (R)-2-((5R,8R)-3-(2,6-difluorophenyl)-9,9-dimethyl-5,6,7,8-tetrahydro-5,8-methanocinnolin-8-yl)-4-(pyridin-2-yl)morpholine], 412 nM.
The result for `CC1(C)[C@H]2CC[C@]1([C@H]1CN(S(C)(=O)=O)CCO1)c1nnc(-c3c(F)cccc3F)cc12` [Compound 73, (S)-2-((5R,8R)-3-(2,6-difluorophenyl)-9,9-dimethyl-5,6,7,8-tetrahydro-5,8-methanocinnolin-8-yl)-4-(methylsulfonyl)morpholine] reads 1030 nM; that for `CC[C@@H](C[C@@]12CC[C@@H](c3cc(-c4c(F)cccc4F)nnc31)C2(C)C)C(N)=O` [Compound 5, (S)-2-(((5R,8R)-3-(2,6-difluorophenyl)-9,9-dimethyl-5,6,7,8-tetrahydro-5,8-methanocinnolin-8-yl)methyl)butanamide], 67.4 nM.
For `Cc1n[nH]c(N2CCC[C@H]([C@@]34CC[C@@H](c5cc(-c6c(F)cccc6F)nnc53)C4(C)C)C2)n1` [Compound 173, 5-(2,6-difluorophenyl)-11,11-dimethyl-1-[1-(3-methyl-1H-1,2,4-triazol-5-yl)-3-piperidyl]-3,4-diazatricyclo[6.2.1.02,7]undeca-2,4,6-triene], the IC50 stood at 2.8 nM.
The result for `C[C@H](O[C@@]12CC[C@@H](c3cc(-c4c(F)cccc4F)nnc31)C2(C)C)C(N)=O` [Compound 43, (S)-2-(((5S,8R)-3-(2,6-difluorophenyl)-9,9-dimethyl-5,6,7,8-tetrahydro-5,8-methanocinnolin-8-yl)oxy)propanamide] reads 300 nM.
With `Cc1n[nH]c(N2CCO[C@@H]([C@@]34CC[C@@H](c5cc(-c6c(F)cccc6F)nnc53)C4(C)C)C2)n1` (single isomer, unassigned) [Compound 147, 2-[5-(2,6-difluorophenyl)-11,11-dimethyl-3,4-diazatricyclo[6.2.1.02,7]undeca-2,4,6-trien-1-yl]-4-(3-methyl-1H-1,2,4-triazol-5-yl)morpholine], the half-maximal inhibitory concentration (IC50) stood at 16 nM.
As for `CC1(C)[C@H]2CC[C@]1([C@H]1CCCN(C(=O)c3cc[nH]n3)C1)c1nnc(-c3c(F)cccc3F)cc12` [Compound 135, [3-[5-(2,6-difluorophenyl)-11,11-dimethyl-3,4-diazatricyclo[6.2.1.02,7]undeca-2,4,6-trien-1-yl]-1-piperidyl]-(1H-pyrazol-3-yl)methanone], the IC50 was 6.7 nM.
For the compound `C[C@@H](O)CNC(=O)N1CCC[C@H]([C@@]23CC[C@@H](c4cc(-c5c(F)cccc5F)nnc42)C3(C)C)C1` [Compound 154, 3-[5-(2,6-difluorophenyl)-11,11-dimethyl-3,4-diazatricyclo[6.2.1.02,7]undeca-2,4,6-trien-1-yl]-N-(2-hydroxypropyl)piperidine-1-carboxamide], the half-inhibitory concentration (IC50) was found to be 15 nM.
In turn, `CN1CCO[C@H]([C@@]23CC[C@@H](c4cc(-c5c(F)cccc5F)nnc42)C3(C)C)C1` [Compound 67, (R)-2-((5R,8R)-3-(2,6-difluorophenyl)-9,9-dimethyl-5,6,7,8-tetrahydro-5,8-methanocinnolin-8-yl)-4-methylmorpholine] registered a 50% inhibitory concentration (IC50) of 215 nM.
For the compound `CC[C@@H](O[C@@]12CC[C@@H](c3cc(-c4c(F)cccc4F)nnc31)C2(C)C)C(=O)NCc1n[nH]c(=O)[nH]1` [Compound 56, (R)-2-(((5S,8R)-3-(2,6-difluorophenyl)-9,9-dimethyl-5,6,7,8-tetrahydro-5,8-methanocinnolin-8-yl)oxy)-N-((5-oxo-4,5-dihydro-1H-1,2,4-triazol-3-yl)methyl)butanamide], the half-maximal inhibitory concentration (IC50) was 95.2 nM.

The values are drawn from patent US9994551B2, “Pyridazine derivatives as RORc modulators” (Genentech, Inc., priority 2015, dated 2018).
